Structures can show the parent of a compound that is named as a salt. Blank lines part the entries; values can stand above or below the compound they belong to.
Tests used:
human His-PIM2 [23-299] = molecular target: T1, human His-PIM2 [23-299] (Homo sapiens, UniProt Q9P1W9); assay: PIM2 in-vitro mobility shift assay (Caliper LC3000, FL-Ahx-Bad phosphorylation); format: biochemical; conditions: 1.5 h; percent inhibition at 0.3 uM compound; read-out: PIM2 % I at 0.3 uM
T1 construct: purified human His-PIM2 [23-299] enzyme; His (N); host or cells: E. coli
Source text: PIM2 In-Vitro Mobility Shift Assay
(§1) One may determine the activity of purified human His-PIM2 [23-299] enzyme in-vitro using a mobility shift assay on a Caliper LC3000 reader (Caliper, Mass.), which measures fluorescence of a phosphorylated and unphosphorylated FL-Ahx-Bad (FITC-(AHX)RSRHSSYPAGT-COOH, Primm 200606-00289, Primm Biotech, Mass.) and calculates a ratiometric value to determine percent turnover. One may express PIM2 (produced at AstraZeneca, R&D Boston) in E. coli cells with a typical yield of >90% purity.
One determines phosphorylation of the FL-Ahx-Bad in the presence and absence of the compound of interest. One preincubates 5 uL of Enzyme/Substrate/adenosine triphosphate (ATP) mix consisting of 2.4 nM […], 3.6 uM FL-Ahx-Bad, and 12 uM ATP in 1.2× buffer with 2 ul of compound for 20 minutes at 25° C. One initiates reactions with 5 uL of Metal mix consisting of 24 mM MgCl2 in 1.2× buffer and incubates at 25° C. for 90 minutes. One stops reactions by addition of 5 uL of Stop mix consisting of 100 mM HEPES, 121 mM ethylenediamine tetraacetic acid, 0.8% Coatin Reagent 3 (Caliper, Mass.), and 0.01% Tween. One detects phosphorylated and unphosphorylated substrate by a Caliper LC3000 reader (Caliper, Mass.) in the presence of separation buffer consisting of 100 mM HEPES, 16 mM ethylenediamine tetraacetic acid, 0.1% Coatin Reagent 3 (Caliper, Mass.), 0.015% Brij-35, 5% DMSO, and 5.6 mM MgCl2. One may use the following separation conditions for a Caliper LC3000: −1.0 PSI, −2000 V upstream voltage, −400 V downstream voltage, 0.2 second sample sip, 45 second post sip, 10% laser strength.

human His-PIM1 [2-313] = molecular target: T2, human His-PIM1 [2-313] (Homo sapiens, UniProt P11309); assay: PIM1 in-vitro mobility shift assay (Caliper LC3000, FL-Ahx-Bad phosphorylation); format: biochemical; conditions: 1.5 h; percent inhibition at 0.3 uM compound; read-out: PIM1 % I at 0.3 uM
T2 construct: purified human His-PIM1 [2-313] enzyme; His (N); purchased University of Dundee, Scotland; host or cells: baculovirus system
Source text: PIM1 In-Vitro Mobility Shift Assay
as §1, with “His-PIM1 [2-313]” for “His-PIM2 [23-299]”, “PIM1 (University of Dundee, Scotland)” for “PIM2 (produced at AstraZeneca, R&D Boston)”, “baculovirus system” for “E. coli cells”, “>85%” for “>90%”
One determines phosphorylation of the FL-Ahx-Bad in the presence and absence of the compound of interest. One preincubates 5 µl of Enzyme/Substrate/adenosine triphosphate (ATP) mix consisting of 2.4 nM PIM1, 3.6 uM FL-Ahx-Bad, and 240 uM ATP in 1.2× buffer with 2 ul of compound for 20 minutes at 25° C. One initiates reactions with 5 ul of Metal mix consisting of 24 mM MgCl2 in 1.2× buffer and incubated at 25° C. for 90 minutes and stops the reactions by addition of 5 ul of Stop mix consisting of 100 mM HEPES, 121 mM ethylenediamine tetraacetic acid, 0.8% Coatin Reagent 3 (Caliper, Mass.), and 0.01% Tween. One detects phosphorylated and unphosphorylated substrate by a Caliper LC3000 reader (Caliper, Mass.) in the presence of separation buffer consisting of 100 mM HEPES, 16 mM ethylenediamine tetraacetic acid, 0.1% Coatin Reagent 3 (Caliper, Mass.), 0.015% Brij-35, 5% DMSO, and 5.6 mM MgCl2. One may use the following separation conditions for a Caliper LC3000: −1.0 PSI, −2000 V upstream voltage, −400 V downstream voltage, 0.2 second sample sip, 45 second post sip, 10% laser strength.
The table 1 below provides the percent inhibition of PIM1 at 0.3 micromolar for Examples provided herein. Several examples were tested more than once. Variations in the experimental outcomes, negative values, or values over 100% inhibition are presumably due to experimental error inherent in the assay.

T1 sequence (Q9P1W9 23-299): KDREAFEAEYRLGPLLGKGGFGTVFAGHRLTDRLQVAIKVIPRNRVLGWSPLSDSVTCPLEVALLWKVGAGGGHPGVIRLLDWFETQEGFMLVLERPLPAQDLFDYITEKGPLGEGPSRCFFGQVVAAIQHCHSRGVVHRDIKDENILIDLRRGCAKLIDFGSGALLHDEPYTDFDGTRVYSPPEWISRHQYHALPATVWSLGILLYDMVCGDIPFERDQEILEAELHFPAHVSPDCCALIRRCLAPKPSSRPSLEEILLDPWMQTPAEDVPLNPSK
T2 sequence (P11309 2-313): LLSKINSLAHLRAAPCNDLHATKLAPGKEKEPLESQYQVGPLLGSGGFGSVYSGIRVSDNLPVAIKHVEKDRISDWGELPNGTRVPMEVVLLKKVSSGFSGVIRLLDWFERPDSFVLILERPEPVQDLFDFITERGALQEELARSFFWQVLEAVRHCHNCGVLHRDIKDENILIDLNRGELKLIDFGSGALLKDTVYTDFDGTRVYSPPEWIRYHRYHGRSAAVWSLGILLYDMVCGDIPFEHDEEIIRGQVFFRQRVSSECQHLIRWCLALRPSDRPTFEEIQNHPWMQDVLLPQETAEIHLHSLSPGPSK

- inhibition at 0.3 µM (human His-PIM2 [23-299]): 87.9%
- inhibition at 0.3 µM (human His-PIM1 [2-313]): 83.9%
Compound: NC(=O)c1ccc(N2CCC[C@H](N)C2)c(/C=C2\SC(=O)NC2=O)c1 [Example 122AF, (S,Z)-4-(3-aminopiperidin-1-yl)-3-((2,4-dioxothiazolidin-5-ylidene)methyl)benzamide hydrochloride]

- inhibition at 0.3 µM (human His-PIM2 [23-299]): 90.7%
- inhibition at 0.3 µM (human His-PIM1 [2-313]): 90.9%
Compound: NCc1cccc(C(=O)N2CCN(c3ccccc3/C=C3\SC(=O)NC3=O)CC2)c1 [Example 110, (Z)-5-(2-(4-(3-(aminomethyl)benzoyl)piperazin-1-yl)benzylidene)thiazolidine-2,4-dione hydrochloride]

- inhibition at 0.3 µM (human His-PIM2 [23-299]): > 95%
- inhibition at 0.3 µM (human His-PIM1 [2-313]): > 95%
Compound: N[C@@H]1CCCN(c2ccccc2/C=C2\SC(=O)NC2=O)C1 [Example 122W, (R,Z)-5-(2-(3-aminopiperidin-1-yl)benzylidene)thiazolidine-2,4-dione hydrochloride]

- inhibition at 0.3 µM (human His-PIM2 [23-299]): > 95%
- inhibition at 0.3 µM (human His-PIM1 [2-313]): > 95%
Compound: COc1cccc(/C=C2\SC(=O)NC2=O)c1N1CCC[C@@H](N)C1 [Example 122E, (R,Z)-5-(2-(3-aminopiperidin-1-yl)-3-methoxybenzylidene)thiazolidine-2,4-dione hydrochloride]

- inhibition at 0.3 µM (human His-PIM2 [23-299]): 49.8%
- inhibition at 0.3 µM (human His-PIM1 [2-313]): 85.9%
Compound: NS(=O)(=O)CCCC(=O)N[C@H]1CCN(c2c(Cl)cccc2/C=C2\SC(=O)NC2=O)C1 [Example 143]

- inhibition at 0.3 µM (human His-PIM2 [23-299]): 18.6%
- inhibition at 0.3 µM (human His-PIM1 [2-313]): 55.1%
Compound: Cn1ccc(C(=O)N[C@H]2CCN(c3c(Cl)cccc3/C=C3\SC(=O)NC3=O)C2)n1 [Example 137]

Continued, compound first:

Compound: O=C1NC(=O)/C(=C/c2ccc[nH]c2=O)S1 [Example 70, (Z)-5-((2-oxo-1,2-dihydropyridin-3-yl)methylene)thiazolidine-2,4-dione]
- inhibition at 0.3 µM (human His-PIM2 [23-299]): < 5%
- inhibition at 0.3 µM (human His-PIM1 [2-313]): < 5%

Compound: NCCC(=O)N1CCN(c2c(Cl)cccc2/C=C2\SC(=O)NC2=O)CC1 [Example 95, (Z)-5-(2-(4-(3-aminopropanoyl)piperazin-1-yl)-3-chlorobenzylidene)thiazolidine-2,4-dione hydrochloride]
- inhibition at 0.3 µM (human His-PIM2 [23-299]): > 95%
- inhibition at 0.3 µM (human His-PIM1 [2-313]): > 95%

Compound: COc1cc(/C=C2\SC(=O)NC2=O)c(N2CCC(CO)CC2)cc1OC [Example 41, (5Z)-5-{2-[4-(hydroxymethyl)piperidin-1-yl]-4,5-dimethoxybenzylidene}-1-,3-thiazolidine-2,4-dione]
- inhibition at 0.3 µM (human His-PIM2 [23-299]): 25.1%
- inhibition at 0.3 µM (human His-PIM1 [2-313]): 74%

Compound: COc1ccc(OCCN2CCCCC2)c(/C=C2\SC(=O)NC2=O)c1 [Example 61, (Z)-5-(5-methoxy-2-(2-(piperidin-1-yl)ethoxy)benzylidene)thiazolidine-2,4-dione]
- inhibition at 0.3 µM (human His-PIM2 [23-299]): 28.1%
- inhibition at 0.3 µM (human His-PIM1 [2-313]): 81.8%

Compound: COc1cc(/C=C2\SC(=O)NC2=O)c(N2CCC(N(C)C)CC2)cc1OC [Example 54, (5Z)-5-{2-(4-(dimethylamino)piperidin-1-yl)-4,5-dimethoxybenzylidene}-thiazolidine-2,4-dione]
- inhibition at 0.3 µM (human His-PIM2 [23-299]): 73.1%
- inhibition at 0.3 µM (human His-PIM1 [2-313]): 88.1%

Compound: O=C1NC(=O)/C(=C/c2cc(C(F)(F)F)ccc2N2CCNCC2)S1 [Example 87, (Z)-5-(2-(piperazin-1-yl)-5-(trifluoromethyl)benzylidene)thiazolidine-2,4-dione hydrochloride]
- inhibition at 0.3 µM (human His-PIM2 [23-299]): 84.2%
- inhibition at 0.3 µM (human His-PIM1 [2-313]): > 95%

Compound: NCCCC(=O)N1CCN(c2ccccc2/C=C2\SC(=O)NC2=O)CC1 [Example 107, (Z)-5-(2-(4-(4-aminobutanoyl)piperazin-1-yl)benzylidene)thiazolidine-2,4-dione hydrochloride]
- inhibition at 0.3 µM (human His-PIM2 [23-299]): > 95%
- inhibition at 0.3 µM (human His-PIM1 [2-313]): > 95%

Compound: O=C1NC(=O)/C(=C/c2cc(C(F)(F)F)cc(Cl)c2N2CCN(C3CCCC3)CC2)S1 [Example 6, (Z)-5-(3-chloro-2-(4-cyclopentylpiperazin-1-yl)-5 (trifluoromethyl)benzylidene)thiazolidine-2,4-dione hydrochloride]
- inhibition at 0.3 µM (human His-PIM2 [23-299]): 9.5%
- inhibition at 0.3 µM (human His-PIM1 [2-313]): 79.4%

Compound: O=C1NC(=O)/C(=C/c2cc(C(F)(F)F)cc(Cl)c2N2CCN(CCO)CC2)S1 [Example 28]
- inhibition at 0.3 µM (human His-PIM2 [23-299]): 27.4%
- inhibition at 0.3 µM (human His-PIM1 [2-313]): 90%

Source: patent US8901307B2, “Chemical compounds 251” (AstraZeneca AB, priority 2008, dated 2014)
